Results taken from PMC5054527, “Mechanism of high affinity inhibition of the human urate transporter URAT1” (Scientific Reports, 2016).
Changes are numbered by the printed parent chain. Like-named read-outs stand apart in the source and are kept apart here.

Tests used:
Assay in all cases: URAT1 uric acid transport activity assay
Assay type in all cases: cell-based
[1] = biological target: T1, r-V474M rURAT1 point mutant (Rattus norvegicus, UniProt Q3ZAV1, V474M)
T1 construct: expressed in transfected cells; host or cells: HEK-293T
T1 sequence (Q3ZAV1 1-553 V474M): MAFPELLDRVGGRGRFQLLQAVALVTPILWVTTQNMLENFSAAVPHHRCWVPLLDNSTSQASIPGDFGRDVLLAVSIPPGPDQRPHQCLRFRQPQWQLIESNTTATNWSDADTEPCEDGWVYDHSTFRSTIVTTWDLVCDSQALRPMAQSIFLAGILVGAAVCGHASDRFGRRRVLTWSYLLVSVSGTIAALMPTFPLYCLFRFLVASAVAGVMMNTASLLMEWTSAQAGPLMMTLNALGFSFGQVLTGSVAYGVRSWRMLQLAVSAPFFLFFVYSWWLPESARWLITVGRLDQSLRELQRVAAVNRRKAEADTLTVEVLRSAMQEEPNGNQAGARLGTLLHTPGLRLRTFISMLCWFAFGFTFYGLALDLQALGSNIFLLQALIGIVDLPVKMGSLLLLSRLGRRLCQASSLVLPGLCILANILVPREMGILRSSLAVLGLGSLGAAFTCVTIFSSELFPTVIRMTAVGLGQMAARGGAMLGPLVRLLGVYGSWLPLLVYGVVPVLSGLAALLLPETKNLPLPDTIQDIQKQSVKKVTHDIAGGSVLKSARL
Outline: (§1)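 Cells expressing site-directed rat URAT1 mutants were exposed to inhibitor dilutions for 5 minutes before radiolabelled uric acid (100 μM) was added for 10 minutes. Potency was derived by nonlinear regression of log inhibitor versus response.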

[2] = biological target: T2, r-M481I rURAT1 point mutant (Rattus norvegicus, UniProt Q3ZAV1, M481I)
T2 sequence (Q3ZAV1 1-553 M481I): T1 sequence (Q3ZAV1 1-553 V474M) with M474V, M481I
Outline: as §1

[3] = biological target: T3, r-T26V rURAT1 point mutant (Rattus norvegicus, UniProt Q3ZAV1, T26V)
T3 sequence (Q3ZAV1 1-553 T26V): T1 sequence (Q3ZAV1 1-553 V474M) with T26V, M474V
Outline: as §1

SMILES: O=C1C(CC[S+]([O-])c2ccccc2)C(=O)N(c2ccccc2)N1c1ccccc1 (stereo not shown) [sulfinpyrazone]
- IC50 ([1]; r-V474M, HEPES pH 7.3, 100 μM 14C-uric acid, read-out: IC50 (uric acid transport)): 732 ± 102 µM
- fold increased affinity of r-M481I compared to rURAT1 ([2]; from IC50 values): 1.7 fold
- IC50 ([2]; r-M481I, HEPES pH 7.3, 100 μM 14C-uric acid, read-out: IC50 (uric acid transport)): 395 ± 68 µM
- IC50 ([3]; r-T26V, HEPES pH 7.3, 100 μM 14C-uric acid, read-out: IC50 (uric acid transport)): 655 ± 191 µM

SMILES: O=C(O)CSc1nnc(Br)n1-c1ccc(C2CC2)c2ccccc12 [lesinurad, 2-((5-bromo-4-(4-cyclopropylnaphthalen-1-yl)-4H-1,2,4-triazol-3-yl)thio)acetic acid]
- IC50 ([1]; r-V474M, MES pH 5.5, 100 μM 14C-uric acid, read-out: IC50 (uric acid transport)): 84 ± 3.2 µM
- IC50 ([2]; r-M481I, MES pH 5.5, 100 μM 14C-uric acid, read-out: IC50 (uric acid transport)): 71 ± 3 µM
- IC50 ([3]; r-T26V, MES pH 5.5, 100 μM 14C-uric acid, read-out: IC50 (uric acid transport)): 76 ± 2.3 µM

SMILES: CCc1oc2ccccc2c1C(=O)c1cc(Br)c(O)c(Br)c1 [benzbromarone]
- IC50 [1]: 17 ± 2.2 µM
- IC50 [2]: 15 ± 1.1 µM
- IC50 [3]: 26 ± 4.4 µM
